In PubChem BioAssay (NCI):
Where “and” joins values, the source holds several entries; their conditions need not be identical. Equal entries are not always repeated.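 Assay format: 96-well plates, 48-hour exposure. GI50: concentration for 50% inhibition of growth. TGI denotes the concentration required for complete inhibition of growth.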

Legend:
Assay in all cases: DTP human tumour cell line panel, 48 h
[1] = system: CAKI-1 renal
[2] = system: A549 NSCLC
[3] = system: SNB-75 CNS
[4] = system: MDA-MB-231 breast
[5] = system: NCI-H522 lung
[6] = system: SK-MEL-5 melanoma
[7] = system: OVCAR-4 ovarian
[8] = system: UO-31 renal
[9] = system: MDA-MB-435
[10] = system: K-562 leukemia

Structure (SMILES)	TGI [1] [µM]	TGI [2] [µM]	TGI [3]	TGI [4] [µM]	TGI [5]	TGI [6]	TGI [7]	TGI [8]	TGI [9]	TGI [10] [µM]	GI50 [10] [nM]	GI50 [3] [nM]	GI50 [5] [nM]	GI50 [6] [nM]
CCCCCC(=O)OCC1(CO)C/C(=C/CC(C(C)C)C(C)C)C(=O)O1 (centres undefined)	66.8	> 75	> 75 µM	> 75	27.7 µM	> 75 µM	> 75 µM	38.2 µM	> 75 µM	–	–	–	–	–
C/C(=N/OCCC(=O)O)C1CC1	> 100	> 100	> 100 µM	–	> 100 µM	> 100 µM	> 100 µM	> 100 µM	–	> 100	–	–	–	–
Cc1cnc2[nH]c(-c3sccc3C)cc(=O)c2c1	> 100	> 100	> 100 µM	> 100	4.49 µM	21.7 µM	> 100 µM	> 100 µM	–	> 100	–	–	–	–
CCC(C)Cn1c(C)nc2c1C(=O)c1ccccc1C2=O (centres undefined)	–	> 100	> 100 µM	–	> 100 µM	29.6 µM	> 100 µM	87.8 µM	–	> 100	–	–	–	–
CC1CN=C(N(C(=O)Nc2ccccc2)C2CCCCC2)S1 (centres undefined)	31.2	34.2	28.9 µM	29.9	–	28.4 µM	30.2 µM	32.3 µM	–	73.2	–	–	–	–
Oc1cccc(-c2cn3cc(Cl)ccc3n2)c1	> 100	> 100	–	> 100	43.3 µM	35.9 µM	> 100 µM	> 100 µM	> 100 µM	> 100	–	–	–	–
COc1ccc(C2CCc3c(cnc4nc(N)nc(N)c34)C2)cc1 (centres undefined)	> 100	> 100	26.7 µM	> 100	44.9 µM	> 100 µM	> 100 µM	–	> 100 µM	> 100	–	–	–	–
CC(C)c1cc(C(C)C)c(B(c2ccccc2)c2ccccc2)c(C(C)C)c1Br	> 100	> 100	–	> 100	> 100 µM	> 100 µM	> 100 µM	> 100 µM	> 100 µM	> 100	–	–	–	–
CC1CC/C(=C\c2ccc(F)cc2)C2=C1C(c1ccc(F)cc1)NC(=S)N2 (centres undefined)	> 100	–	–	> 100	–	> 100 µM	–	> 100 µM	> 100 µM	> 100	–	–	–	–
Cc1cc(N)c2cc(NC(=O)CCCCCCCCC(=O)Nc3ccc4nc(C)cc(N)c4c3)ccc2n1	> 100	> 31.6	> 100 µM	–	5.36 µM	> 100 µM	> 100 µM	> 100 µM	–	> 100	–	–	–	–
COc1ccc(OC)c([N+](=O)[O-])c1-c1nc2sc(C)cn2c1/C=N/N=C(N)N	84.1	> 100	–	84.4	46.5 µM	49.9 µM	47.3 µM	> 100 µM	56.7 µM	28.7	–	–	–	–
O=C(Nc1ccccc1C(=O)O)C(=Cc1ccccc1O)NC(=O)c1ccccc1	> 100	> 100	> 100 µM	> 100	> 100 µM	> 100 µM	–	> 100 µM	> 100 µM	> 100	–	–	–	–
CCOC(=O)CCN1C(=O)c2c(NC(=O)C(=O)O)cccc2S1(=O)=O	> 100	> 100	–	> 100	> 100 µM	–	> 100 µM	> 100 µM	> 100 µM	> 100	–	–	–	–
COc1cc2c3c4[n+](cc2c(OC)c1OC)CCC4CCC3 (centres undefined)	> 100	> 100	–	> 100	> 100 µM	> 53.3 µM	> 100 µM	> 100 µM	> 100 µM	> 100	–	–	–	–
CC(=O)OC1COC(n2c(N)c(C#N)c(-c3ccccc3)c(C#N)c2=S)C(OC(C)=O)C1OC(C)=O (centres undefined)	> 100	> 100	86.8 µM and > 100 µM	> 100	> 100 µM	> 100 µM and 95.4 µM	> 100 µM	> 100 µM and 67.8 µM	93.6 µM and 61.2 µM	–	–	–	–	–
CC1C/C(=C\c2ccc(O)c(O)c2)C(=O)/C(=C/c2ccc(O)c(O)c2)C1 (centres undefined)	18.1	32.8	16.7 µM	43.4	3.58 µM	13.7 µM	34.1 µM	–	9.74 µM	27.4	–	–	–	–
c1ccc(C2C3=C(CCCC3)Nc3nnnn32)cc1 (centres undefined)	> 100	> 100	–	> 100	–	> 100 µM	–	> 100 µM	> 100 µM	> 100	–	–	–	–
COc1cccc2c1C(=O)c1c(O)c3c(c(O)c1C2=O)C[C@@](O)(C(=O)CO)CC3OC1CC(NCCCCC(OC(C)=O)OC(C)=O)C(O)C(C)O1 (some centres undefined)	0.00812	–	0.00432 µM and 0.00344 µM	–	0.00344 µM and 0.00513 µM	0.00341 µM	0.00449 µM and 0.00985 µM	0.0043 µM	–	0.00466	0.522	0.927	1.25	1.52
COc1ccc(C2=C(N)c3cc(OC)ccc3C2=O)cc1	> 100	> 100	> 100 µM	> 100	> 100 µM	> 100 µM	> 100 µM	–	> 100 µM	–	–	–	–	–
COc1ccc(-c2nc3ncccn3c2-c2ccc(S(C)(=O)=O)cc2)cc1	68.7	> 100	> 100 µM	> 100	–	> 100 µM	> 100 µM	> 100 µM	> 100 µM	> 100	–	–	–	–
O=C1/C(=C/Cc2ccco2)N=C(c2ccccc2)N1c1nc2c(Cl)cc(Cl)cc2s1	> 100	80.7	–	82.2	–	> 100 µM	75.6 µM	72.8 µM	60.1 µM	> 100	–	–	–	–
CC(=O)c1nc(C#N)c(N)o1	> 100	> 100	> 100 µM	> 100	> 100 µM	–	> 100 µM	> 100 µM	> 100 µM	> 100	–	–	–	–
N#CC(NNC(=O)c1c(Cl)c(Cl)c(Cl)c(Cl)c1-c1nc2ccc(C(=O)c3ccccc3)cc2[nH]1)c1cccc(Oc2ccccc2)c1 (centres undefined)	> 100	> 100	72.8 µM	45.2	–	38.5 µM	> 100 µM	> 100 µM	53.6 µM	> 100	–	–	–	–
S=C1NNC(=S)NN1	0.475	> 1	–	> 1	> 1 µM	> 1 µM	> 1 µM	> 1 µM	–	0.478	–	–	–	–
